# Measurements reported in patent US6528272B2 (priority 1997, dated 2003).
# Target: SEB (Staphylococcus aureus, UniProt P01552)
# Format: binding
# Sequence of SEB (P01552 28-266 limits assumed): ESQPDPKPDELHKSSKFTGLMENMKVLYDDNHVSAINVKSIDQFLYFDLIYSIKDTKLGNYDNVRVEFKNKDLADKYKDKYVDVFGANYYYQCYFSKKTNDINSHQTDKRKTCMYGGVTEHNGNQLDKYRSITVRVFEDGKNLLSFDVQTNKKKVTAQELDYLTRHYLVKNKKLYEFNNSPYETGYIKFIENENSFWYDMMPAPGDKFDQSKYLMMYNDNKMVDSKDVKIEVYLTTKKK
row,Substance,binding of SEB to glycosphingolipid
1,digalactosylceramide [diGalCer],strong binding
2,galactosylceramide [GalCer],did not significantly bind
3,glucosylceramide [GlcCer],did not significantly bind
4,lactosylceramide [LacCer],did not significantly bind
